test system: MCF7; assay: Growth inhibition of human MCF7 cells assessed as cell growth at 0.1 uM incubated for 48 hrs by sulforhodamine B assay relative to control; type: functional; details: MCF7, 48 h, read-out: Activity

Compound	growth at 0.1 µM
COc1cc(Cl)cc(-c2nn(-c3cccc(NC(=O)c4ccc(N5CCOCC5)c(C(F)(F)F)c4)c3)cc2-c2ccncc2)c1	92%
O=C(Nc1cccc(-n2cc(-c3ccncc3)c(-c3cc(O)cc(Cl)c3)n2)c1)c1cc(C(F)(F)F)cc(C(F)(F)F)c1	92%

test system: OVCAR-4; assay: Growth inhibition of human OVCAR4 cells assessed as cell growth at 100 uM incubated for 48 hrs by sulforhodamine B assay relative to control; type: functional; details: OVCAR-4, 48 h, read-out: Activity

Compound	growth at 100 µM
COc1cc(Cl)cc(-c2nn(-c3cccc(NC(=O)c4ccc(N5CCOCC5)c(C(F)(F)F)c4)c3)cc2-c2ccncc2)c1	38%
O=C(Nc1cccc(-n2cc(-c3ccncc3)c(-c3cc(O)cc(Cl)c3)n2)c1)c1cc(C(F)(F)F)cc(C(F)(F)F)c1	15%

test system: SW-620; assay: Growth inhibition of human SW620 cells incubated for 48 hrs by sulforhodamine B assay; type: functional, cell-based; details: SW-620, 48 h, read-out: GI50

Compound	GI50
COc1cc(Cl)cc(-c2nn(-c3cccc(NC(=O)c4ccc(N5CCOCC5)c(C(F)(F)F)c4)c3)cc2-c2ccncc2)c1	2.96 µM
O=C(Nc1cccc(-n2cc(-c3ccncc3)c(-c3cc(O)cc(Cl)c3)n2)c1)c1cc(C(F)(F)F)cc(C(F)(F)F)c1	4.48 µM

same assay, conditions: SW-620, 48 h, read-out: LC50

Compound	LC50
COc1cc(Cl)cc(-c2nn(-c3cccc(NC(=O)c4ccc(N5CCOCC5)c(C(F)(F)F)c4)c3)cc2-c2ccncc2)c1	> 100 µM
O=C(Nc1cccc(-n2cc(-c3ccncc3)c(-c3cc(O)cc(Cl)c3)n2)c1)c1cc(C(F)(F)F)cc(C(F)(F)F)c1	> 100 µM

same assay, conditions: SW-620, 48 h, read-out: TGI

Compound	TGI
COc1cc(Cl)cc(-c2nn(-c3cccc(NC(=O)c4ccc(N5CCOCC5)c(C(F)(F)F)c4)c3)cc2-c2ccncc2)c1	> 100 µM
O=C(Nc1cccc(-n2cc(-c3ccncc3)c(-c3cc(O)cc(Cl)c3)n2)c1)c1cc(C(F)(F)F)cc(C(F)(F)F)c1	> 100 µM

same assay, conditions: SW-620, 48 h, read-out: pGI50 (converted)

Compound	GI50
COc1cc(Cl)cc(-c2nn(-c3cccc(NC(=O)c4ccc(N5CCOCC5)c(C(F)(F)F)c4)c3)cc2-c2ccncc2)c1	29.5 µM
O=C(Nc1cccc(-n2cc(-c3ccncc3)c(-c3cc(O)cc(Cl)c3)n2)c1)c1cc(C(F)(F)F)cc(C(F)(F)F)c1	4.47 µM

same assay, conditions: SW-620, 48 h, read-out: pLC50 (converted)

Compound	LC50
COc1cc(Cl)cc(-c2nn(-c3cccc(NC(=O)c4ccc(N5CCOCC5)c(C(F)(F)F)c4)c3)cc2-c2ccncc2)c1	> 100 µM
O=C(Nc1cccc(-n2cc(-c3ccncc3)c(-c3cc(O)cc(Cl)c3)n2)c1)c1cc(C(F)(F)F)cc(C(F)(F)F)c1	> 100 µM

same assay, conditions: SW-620, 48 h, read-out: pTGI (converted)

Compound	TGI
COc1cc(Cl)cc(-c2nn(-c3cccc(NC(=O)c4ccc(N5CCOCC5)c(C(F)(F)F)c4)c3)cc2-c2ccncc2)c1	> 100 µM
O=C(Nc1cccc(-n2cc(-c3ccncc3)c(-c3cc(O)cc(Cl)c3)n2)c1)c1cc(C(F)(F)F)cc(C(F)(F)F)c1	> 100 µM

test system: NCI-H522; assay: Growth inhibition of human NCI-H522 cells assessed as cell growth at 1 uM incubated for 48 hrs by sulforhodamine B assay relative to control; type: functional; details: NCI-H522, 48 h, read-out: Activity

Compound	growth at 1 µM
COc1cc(Cl)cc(-c2nn(-c3cccc(NC(=O)c4ccc(N5CCOCC5)c(C(F)(F)F)c4)c3)cc2-c2ccncc2)c1	77%
O=C(Nc1cccc(-n2cc(-c3ccncc3)c(-c3cc(O)cc(Cl)c3)n2)c1)c1cc(C(F)(F)F)cc(C(F)(F)F)c1	54%

test system: A549; assay: Growth inhibition of human A549/ATCC cells assessed as cell growth at 0.1 uM incubated for 48 hrs by sulforhodamine B assay relative to control; type: functional; details: A549, 48 h, read-out: Activity

Compound	growth at 0.1 µM
COc1cc(Cl)cc(-c2nn(-c3cccc(NC(=O)c4ccc(N5CCOCC5)c(C(F)(F)F)c4)c3)cc2-c2ccncc2)c1	102%
O=C(Nc1cccc(-n2cc(-c3ccncc3)c(-c3cc(O)cc(Cl)c3)n2)c1)c1cc(C(F)(F)F)cc(C(F)(F)F)c1	95%

test system: NCI-H322M; assay: Growth inhibition of human NCI-H322M cells incubated for 48 hrs by sulforhodamine B assay; type: functional, cell-based; details: read-out: GI50

Compound	GI50
COc1cc(Cl)cc(-c2nn(-c3cccc(NC(=O)c4ccc(N5CCOCC5)c(C(F)(F)F)c4)c3)cc2-c2ccncc2)c1	7.37 µM
O=C(Nc1cccc(-n2cc(-c3ccncc3)c(-c3cc(O)cc(Cl)c3)n2)c1)c1cc(C(F)(F)F)cc(C(F)(F)F)c1	7.92 µM

same assay, conditions: read-out: LC50 (the source's name)

Compound	CC50
COc1cc(Cl)cc(-c2nn(-c3cccc(NC(=O)c4ccc(N5CCOCC5)c(C(F)(F)F)c4)c3)cc2-c2ccncc2)c1	> 100 µM
O=C(Nc1cccc(-n2cc(-c3ccncc3)c(-c3cc(O)cc(Cl)c3)n2)c1)c1cc(C(F)(F)F)cc(C(F)(F)F)c1	> 100 µM

same assay, conditions: read-out: TGI

Compound	TGI
COc1cc(Cl)cc(-c2nn(-c3cccc(NC(=O)c4ccc(N5CCOCC5)c(C(F)(F)F)c4)c3)cc2-c2ccncc2)c1	> 100 µM
O=C(Nc1cccc(-n2cc(-c3ccncc3)c(-c3cc(O)cc(Cl)c3)n2)c1)c1cc(C(F)(F)F)cc(C(F)(F)F)c1	> 100 µM

same assay, conditions: read-out: pGI50 (converted)

Compound	GI50
COc1cc(Cl)cc(-c2nn(-c3cccc(NC(=O)c4ccc(N5CCOCC5)c(C(F)(F)F)c4)c3)cc2-c2ccncc2)c1	74.1 µM
O=C(Nc1cccc(-n2cc(-c3ccncc3)c(-c3cc(O)cc(Cl)c3)n2)c1)c1cc(C(F)(F)F)cc(C(F)(F)F)c1	7.94 µM

same assay, conditions: read-out: pLC50 (the source's name) (converted)

Compound	CC50
COc1cc(Cl)cc(-c2nn(-c3cccc(NC(=O)c4ccc(N5CCOCC5)c(C(F)(F)F)c4)c3)cc2-c2ccncc2)c1	> 100 µM
O=C(Nc1cccc(-n2cc(-c3ccncc3)c(-c3cc(O)cc(Cl)c3)n2)c1)c1cc(C(F)(F)F)cc(C(F)(F)F)c1	> 100 µM

same assay, conditions: read-out: pTGI (converted)

Compound	TGI
COc1cc(Cl)cc(-c2nn(-c3cccc(NC(=O)c4ccc(N5CCOCC5)c(C(F)(F)F)c4)c3)cc2-c2ccncc2)c1	> 100 µM
O=C(Nc1cccc(-n2cc(-c3ccncc3)c(-c3cc(O)cc(Cl)c3)n2)c1)c1cc(C(F)(F)F)cc(C(F)(F)F)c1	> 100 µM

test system: CAKI-1; assay: Growth inhibition of human Caki1 cells assessed as cell growth at 100 uM incubated for 48 hrs by sulforhodamine B assay relative to control; type: functional; details: CAKI-1, 48 h, read-out: Activity

Compound	growth at 100 µM
COc1cc(Cl)cc(-c2nn(-c3cccc(NC(=O)c4ccc(N5CCOCC5)c(C(F)(F)F)c4)c3)cc2-c2ccncc2)c1	14%
O=C(Nc1cccc(-n2cc(-c3ccncc3)c(-c3cc(O)cc(Cl)c3)n2)c1)c1cc(C(F)(F)F)cc(C(F)(F)F)c1	7%

test system: UO-31; assay: Growth inhibition of human UO31 cells assessed as cell growth at 0.01 uM incubated for 48 hrs by sulforhodamine B assay relative to control; type: functional; details: UO-31, 48 h, read-out: Activity

Compound	growth at 0.01 µM
COc1cc(Cl)cc(-c2nn(-c3cccc(NC(=O)c4ccc(N5CCOCC5)c(C(F)(F)F)c4)c3)cc2-c2ccncc2)c1	92%
O=C(Nc1cccc(-n2cc(-c3ccncc3)c(-c3cc(O)cc(Cl)c3)n2)c1)c1cc(C(F)(F)F)cc(C(F)(F)F)c1	57%

test system: T47D; assay: Growth inhibition of human T47D cells assessed as cell growth at 100 uM incubated for 48 hrs by sulforhodamine B assay relative to control; type: functional; details: read-out: Activity

Compound	growth at 100 µM
COc1cc(Cl)cc(-c2nn(-c3cccc(NC(=O)c4ccc(N5CCOCC5)c(C(F)(F)F)c4)c3)cc2-c2ccncc2)c1	33%

test system: Malme-3M; assay: Growth inhibition of human MALME-3M cells incubated for 48 hrs by sulforhodamine B assay; type: functional, cell-based; details: read-out: GI50

Compound	GI50
COc1cc(Cl)cc(-c2nn(-c3cccc(NC(=O)c4ccc(N5CCOCC5)c(C(F)(F)F)c4)c3)cc2-c2ccncc2)c1	2.53 µM
O=C(Nc1cccc(-n2cc(-c3ccncc3)c(-c3cc(O)cc(Cl)c3)n2)c1)c1cc(C(F)(F)F)cc(C(F)(F)F)c1	3.59 µM

same assay, conditions: read-out: LC50 (the source's name)

Compound	CC50
COc1cc(Cl)cc(-c2nn(-c3cccc(NC(=O)c4ccc(N5CCOCC5)c(C(F)(F)F)c4)c3)cc2-c2ccncc2)c1	> 100 µM
O=C(Nc1cccc(-n2cc(-c3ccncc3)c(-c3cc(O)cc(Cl)c3)n2)c1)c1cc(C(F)(F)F)cc(C(F)(F)F)c1	> 100 µM

same assay, conditions: read-out: TGI

Compound	TGI
COc1cc(Cl)cc(-c2nn(-c3cccc(NC(=O)c4ccc(N5CCOCC5)c(C(F)(F)F)c4)c3)cc2-c2ccncc2)c1	> 100 µM
O=C(Nc1cccc(-n2cc(-c3ccncc3)c(-c3cc(O)cc(Cl)c3)n2)c1)c1cc(C(F)(F)F)cc(C(F)(F)F)c1	94.4 µM

same assay, conditions: read-out: pGI50 (converted)

Compound	GI50
COc1cc(Cl)cc(-c2nn(-c3cccc(NC(=O)c4ccc(N5CCOCC5)c(C(F)(F)F)c4)c3)cc2-c2ccncc2)c1	28.2 µM
O=C(Nc1cccc(-n2cc(-c3ccncc3)c(-c3cc(O)cc(Cl)c3)n2)c1)c1cc(C(F)(F)F)cc(C(F)(F)F)c1	3.72 µM

same assay, conditions: read-out: pLC50 (the source's name) (converted)

Compound	CC50
COc1cc(Cl)cc(-c2nn(-c3cccc(NC(=O)c4ccc(N5CCOCC5)c(C(F)(F)F)c4)c3)cc2-c2ccncc2)c1	> 100 µM
O=C(Nc1cccc(-n2cc(-c3ccncc3)c(-c3cc(O)cc(Cl)c3)n2)c1)c1cc(C(F)(F)F)cc(C(F)(F)F)c1	> 100 µM

same assay, conditions: read-out: pTGI (converted)

Compound	TGI
COc1cc(Cl)cc(-c2nn(-c3cccc(NC(=O)c4ccc(N5CCOCC5)c(C(F)(F)F)c4)c3)cc2-c2ccncc2)c1	> 100 µM
O=C(Nc1cccc(-n2cc(-c3ccncc3)c(-c3cc(O)cc(Cl)c3)n2)c1)c1cc(C(F)(F)F)cc(C(F)(F)F)c1	95.5 µM

test system: Hs-578T; assay: Growth inhibition of human Hs578T cells assessed as cell growth at 0.1 uM incubated for 48 hrs by sulforhodamine B assay relative to control; type: functional; details: read-out: Activity

Compound	growth at 0.1 µM
COc1cc(Cl)cc(-c2nn(-c3cccc(NC(=O)c4ccc(N5CCOCC5)c(C(F)(F)F)c4)c3)cc2-c2ccncc2)c1	92%
O=C(Nc1cccc(-n2cc(-c3ccncc3)c(-c3cc(O)cc(Cl)c3)n2)c1)c1cc(C(F)(F)F)cc(C(F)(F)F)c1	92%

test system: NCI/ADR-RES; assay: Growth inhibition of human NCI/ADR-RES cells assessed as cell growth at 0.1 uM incubated for 48 hrs by sulforhodamine B assay relative to control; type: functional; details: read-out: Activity

Compound	growth at 0.1 µM
COc1cc(Cl)cc(-c2nn(-c3cccc(NC(=O)c4ccc(N5CCOCC5)c(C(F)(F)F)c4)c3)cc2-c2ccncc2)c1	99%
O=C(Nc1cccc(-n2cc(-c3ccncc3)c(-c3cc(O)cc(Cl)c3)n2)c1)c1cc(C(F)(F)F)cc(C(F)(F)F)c1	100%

test system: CAKI-1; assay: Growth inhibition of human Caki1 cells assessed as cell growth at 0.01 uM incubated for 48 hrs by sulforhodamine B assay relative to control; type: functional; details: CAKI-1, 48 h, read-out: Activity

Compound	growth at 0.01 µM
COc1cc(Cl)cc(-c2nn(-c3cccc(NC(=O)c4ccc(N5CCOCC5)c(C(F)(F)F)c4)c3)cc2-c2ccncc2)c1	98%
O=C(Nc1cccc(-n2cc(-c3ccncc3)c(-c3cc(O)cc(Cl)c3)n2)c1)c1cc(C(F)(F)F)cc(C(F)(F)F)c1	97%

test system: MCF7; assay: Growth inhibition of human MCF7 cells assessed as cell growth at 0.01 uM incubated for 48 hrs by sulforhodamine B assay relative to control; type: functional; details: MCF7, 48 h, read-out: Activity

Compound	growth at 0.01 µM
COc1cc(Cl)cc(-c2nn(-c3cccc(NC(=O)c4ccc(N5CCOCC5)c(C(F)(F)F)c4)c3)cc2-c2ccncc2)c1	91%
O=C(Nc1cccc(-n2cc(-c3ccncc3)c(-c3cc(O)cc(Cl)c3)n2)c1)c1cc(C(F)(F)F)cc(C(F)(F)F)c1	58%

test system: 786-0; assay: Growth inhibition of human 786-0 cells assessed as cell growth at 0.1 uM incubated for 48 hrs by sulforhodamine B assay relative to control; type: functional; details: 786-0, 48 h, read-out: Activity

Compound	growth at 0.1 µM
COc1cc(Cl)cc(-c2nn(-c3cccc(NC(=O)c4ccc(N5CCOCC5)c(C(F)(F)F)c4)c3)cc2-c2ccncc2)c1	95%
O=C(Nc1cccc(-n2cc(-c3ccncc3)c(-c3cc(O)cc(Cl)c3)n2)c1)c1cc(C(F)(F)F)cc(C(F)(F)F)c1	97%
